# Experiments:
# [1] = tested on: monocytes/macrophages (CD64); settings: Tsk/+ mice, IRF5D 1 mg/kg/d subcutaneously, 21 d; Tsk/+ vs. Tsk/+ + IRF5D p<0.025; mean ± SD, n=3, 10 images per antibody; ref [21]; cited from earlier work
# extracellular matrix = test: alterations in extracellular matrix of tight-skin mouse; format: in vivo, Tsk/+ mice; settings: tight-skin mouse (Tsk/+); abstract statement, no data shown
# neutrophils (NIMP) = settings: Tsk/+ mice, IRF5D 1 mg/kg/d subcutaneously, 21 d; Tsk/+ vs. Tsk/+ + IRF5D p<0.025; mean ± SD, n=3, 10 images per antibody; ref [21]; cited from earlier work
substance,measurement,setting,value
Ac-ELDWDADDIRLQIDNPD-NH2 [IRF5D],number of monocytes/macrophages (CD64) in the heart,[1],decreased
same,alterations in extracellular matrix,extracellular matrix,reduced alterations in extracellular matrix
same,number of neutrophils (NIMP) in the heart,neutrophils (NIMP),decreased
